Laboratory results: patent publication EP2518054A1, “AMIDE COMPOUND” (Takeda Pharmaceutical Company Limited, priority 2009, dated 2011)

Assays:
human GPR52 = target: T1, human GPR52 (Homo sapiens, UniProt Q9Y2T5); assay: Increase of intracellular cAMP concentration in human GPR52-expressing CHO cell (AlphaScreen cAMP assay); assay type: cell-based; settings: human GPR52-expressing CHO(dhfr-) cells; for activity at 1 µM: CHO, 1µM test compound, 100% = cAMP with 1 µM Reference Example 79, 0% = DMSO, 37°C, 30 min, read-out: GPR52 agonist activity (%); for EC50: concentration of the test compound at which it shows 50% activity, read-out: GPR52 agonist activity EC50
T1 construct: expressed in transfected cells; host or cells: CHO(dhfr-) cells
T1 sequence (Q9Y2T5 whole entry): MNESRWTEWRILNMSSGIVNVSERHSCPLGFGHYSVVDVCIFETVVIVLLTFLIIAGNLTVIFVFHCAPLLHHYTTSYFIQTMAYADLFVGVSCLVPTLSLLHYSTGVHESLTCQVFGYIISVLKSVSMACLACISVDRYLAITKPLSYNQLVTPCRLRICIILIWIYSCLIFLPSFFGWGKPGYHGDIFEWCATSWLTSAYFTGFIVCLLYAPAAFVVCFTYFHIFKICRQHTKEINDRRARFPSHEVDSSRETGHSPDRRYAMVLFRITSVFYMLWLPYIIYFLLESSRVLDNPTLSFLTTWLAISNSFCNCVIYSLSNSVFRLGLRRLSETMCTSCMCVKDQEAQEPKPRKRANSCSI
Method: Increase of intracellular cAMP concentration in human GPR52-expressing CHO cell
Using OptiPlate-384 (PerkinElmer Inc.), 1×10^4 human GPR52-expressing CHO(dhfr-) cells were incubated together with various concentration(10^-5µM - 10µm) of a test compound in an assay buffer (30 µL, HBSS (containing Ca^2+ and Mg^2+), 0.5% BSA, 100 µM IBMX, 100 µM Ro20-1724, 5 mM HEPES (pH 7.55)) at 37°C for 30 min. Thereafter, according to the protocol of AlphaScreen CAMP Assay Kit (PerkinElmer Inc.), the intracellular cAMP concentration was measured by EnVision (PerkinElmer Inc.). The GPR52 agonist activity was calculated, assuming the intracellular cAMP concentration in the presence of […] N-(2-hydroxyethyl)-3-[2-[3-(trifluoromethyl)benzyl]-1-benzofuran-4-yl]benzamide (Reference Example 79) to be 100% and assuming the intracellular cAMP concentration when DMSO was added instead of the test compound to be 0%.

[1] = test system: methamphetamine-induced locomotor hyperactivity in mice; assay: Inhibition test of methamphetamine-induced locomotor hyperactivity; assay type: in vivo; settings: test compound 10 mg/kg body weight orally, male ICR mice; methamphetamine 2 mg/kg s.c. 60 min later; locomotor activity counted over 150 min, versus vehicle group
Method: Inhibition test of methamphetamine-induced locomotor hyperactivity
The compound of the present invention can be evaluated by assessing its capacity to inhibit methamphetamine-induced locomotor hyperactivity in mice. The method of Okuyama et al (Life Science, Vol. 65, p. 2109-2125 (1999)) was modified and used for testing the inhibition of methamphetamine-induced locomotor hyperactivity.
Locomotor activity was measured using a 32-channel locomotor activity measurement device MDC-LT (BrainScience Idea Co., Ltd.), which emits infrared beams from the top of a cage (30 x 40 x 20 cm). 6- to 8-Week-old male ICR mice were acclimated for at least 45 min in the measurement cages, and then either test compound (10 mg/kg body weight) dissolved in vehicle (0.5% aqueous methylcellulose solution) or the vehicle alone was orally administered. This oral administration was followed 60 min later by subcutaneous administration of methamphetamine (2 mg/kg body weight).
The number of times the laboratory animals passed through the infrared beams emitted inside the measurement cages in 150 min after administration of the test compound or vehicle was counted to quantify locomotor activity. The methamphetamine-induced locomotor hyperactivity inhibition rate (activity inhibition rate (%)) was calculated by the following equation. Activity inhibition rate (%) = {1-(locomotor activity of test compound treatment group after treatment with methamphetamine÷locomotor activity of vehicle treatment group after treatment with methamphetamine)}x 100 [formula] The results are shown in Table 3

SMILES | activity at 1 µM (human GPR52) [%] | EC50 (human GPR52) [nM] | Activity inhibition rate (%) [1] [%]
Cc1nn(-c2cccc3cc(Cc4cccc(C(F)(F)F)c4)sc23)c(CO)c1C(=O)NCCO [Example 65, N-(2-hydroxyethyl)-5-(hydroxymethyl)-3-methyl-1-[2-[3-(trifluoromethyl)benzyl]-1-benzothiophen-7-yl]-1H-pyrazole-4-carboxamide] | 99 | – | 51
Cc1nn(-c2ccc(F)c3cc(Cc4cccc(C(F)(F)F)c4)sc23)c(C)c1C(=O)NCC(N)=O [Example 58, N-(2-amino-2-oxoethyl)-1-[4-fluoro-2-[3-(trifluoromethyl)benzyl]-1-benzothiophen-7-yl]-3,5-dimethyl-1H-pyrazole-4-carboxamide] | 92 | 40 | 47
Cc1nn(-c2cccc3cc(Cc4cccc(C(F)(F)F)c4)sc23)cc1C(=O)NCCO [Example 15, N-(2-hydroxyethyl)-3-methyl-1-[2-[3-(trifluoromethyl)benzyl]-1-benzothiophen-7-yl]-1H-pyrazole-4-carboxamide] | 102 | 5.7 | 48
COCCNC(=O)c1cn(-c2cccc3cc(Cc4cccc(C(F)(F)F)c4)sc23)nc1C [Example 14, N-(2-methoxyethyl)-3-methyl-1-[2-[3-(trifluoromethyl)benzyl]-1-benzothiophen-7-yl]-1H-pyrazole-4-carboxamide] | 87 | 14 | 53
Cc1nn(-c2cccc3cc(Cc4cccc(C(F)(F)F)c4)sc23)cc1C(N)=O [Example 17, 3-methyl-1-[2-[3-(trifluoromethyl)benzyl]-1-benzothiophen-7-yl]-1H-pyrazole-4-carboxamide] | 96 | 11 | 43
Cc1nc(-c2cccc3oc(Cc4cccc(C(F)(F)F)c4)cc23)sc1C(N)=O [Example 44, 4-methyl-2-[2-[3-(trifluoromethyl)benzyl]-1-benzofuran-4-yl]-1,3-thiazole-5-carboxamide] | 92 | – | –
Cc1nc(-c2cccc3cc(Cc4cccc(C(F)(F)F)c4)sc23)sc1C(=O)NCCC#N [Example 38, N-(2-cyanoethyl)-4-methyl-2-[2-[3-(trifluoromethyl)benzyl]-1-benzothiophen-7-yl]-1,3-thiazole-5-carboxamide] | 101 | – | –
Cc1cc(C(=O)NCC(N)=O)n(-c2cccc3cc(Cc4cccc(C(F)(F)F)c4)sc23)n1 [Example 31, N-(2-amino-2-oxoethyl)-3-methyl-1-[2-[3-(trifluoromethyl)benzyl]-1-benzothiophen-7-yl]-1H-pyrazole-5-carboxamide] | 84 | – | –
Cc1nc(-c2cccc3cc(Cc4cccc(C(F)(F)F)c4)sc23)n(C)c1C(N)=O [Example 48, 1,4-dimethyl-2-[2-[3-(trifluoromethyl)benzyl]-1-benzothiophen-7-yl]-1H-imidazole-5-carboxamide] | 89 | – | –
Cc1nn(-c2cccc3cc(Cc4cc(F)cc(Cl)c4)sc23)c(C)c1C(=O)NCC(N)=O [Example 55, N-(2-amino-2-oxoethyl)-1-[2-(3-chloro-5-fluorobenzyl)-1-benzothiophen-7-yl]-3,5-dimethyl-1H-pyrazole-4-carboxamide] | 96 | – | –
Cc1c(C(=O)NCC(N)=O)c(CO)nn1-c1cccc2cc(Cc3cccc(C(F)(F)F)c3)sc12 [Example 68, N-(2-amino-2-oxoethyl)-3-(hydroxymethyl)-5-methyl-1-[2-[3-(trifluoromethyl)benzyl]-1-benzothiophen-7-yl]-1H-pyrazole-4-carboxamide] | 88 | 170 | –
Cc1nc(-c2cccc3nn(Cc4cccc(C(F)(F)F)c4)cc23)sc1C(N)=O [Example 41, 4-methyl-2-[2-[3-(trifluoromethyl)benzyl]-2H-indazol-4-yl]-1,3-thiazole-5-carboxamide] | – | 49 | –
Cc1nc(-c2cccc3cc(Cc4cccc(C(F)(F)F)c4)sc23)sc1C(=O)NCC(N)=O [Example 37, N-(2-amino-2-oxoethyl)-4-methyl-2-[2-[3-(trifluoromethyl)benzyl]-1-benzothiophen-7-yl]-1,3-thiazole-5-carboxamide] | 97 | – | –
Cc1c(C(N)=O)nc(-c2cccc3cc(Cc4cccc(C(F)(F)F)c4)sc23)n1C [Example 50, 1,5-dimethyl-2-[2-[3-(trifluoromethyl)benzyl]-1-benzothiophen-7-yl]-1H-imidazole-4-carboxamide] | 79 | – | –
Cc1nn(-c2cccc3cc(Cc4cc(F)cc(Cl)c4)sc23)c(C)c1C(=O)NCCO [Example 56, 1-[2-(3-chloro-5-fluorobenzyl)-1-benzothiophen-7-yl]-N-(2-hydroxyethyl)-3,5-dimethyl-1H-pyrazole-4-carboxamide] | 105 | 6.9 | –
NC(=O)c1cn(-c2cccc3cc(Cc4cccc(C(F)(F)F)c4)sc23)nc1C(F)(F)F [Example 22, 3-(trifluoromethyl)-1-[2-[3-(trifluoromethyl)benzyl]benzothiophen-7-yl]-1H-pyrazole-4-carboxamide] | 93 | – | –
CC(C)c1nn(-c2cccc3cc(Cc4cccc(C(F)(F)F)c4)sc23)cc1C(=O)NCCO [Example 26, N-(2-hydroxyethyl)-3-(1-methylethyl)-1-[2-[3-(trifluoromethyl)benzyl]-1-benzothiophen-7-yl]-1H-pyrazole-4-carboxamide] | 96 | – | –

More lines, main results first:

activity at 1 µM (human GPR52) [%] | EC50 (human GPR52) [nM] | SMILES | Activity inhibition rate (%) [1] [%]
96 | – | Cc1nn(-c2ccc(F)c3cc(Cc4cccc(C(F)(F)F)c4)sc23)c(CO)c1C(=O)NCC(N)=O [Example 72, N-(2-amino-2-oxoethyl)-1-[4-fluoro-2-[3-(trifluoromethyl)benzyl]-1-benzothiophen-7-yl]-5-(hydroxymethyl)-3-methyl-1H-pyrazole-4-carboxamide] | –
70 | – | Cc1cccc(Cc2cc3cccc(-n4nc(C)c(C(=O)NCC(N)=O)c4C)c3s2)c1 [Example 93, N-(2-amino-2-oxoethyl)-3,5-dimethyl-1-[2-(3-methylbenzyl)-1-benzothiophen-7-yl]-1H-pyrazole-4-carboxamide] | –
99 | – | CNC(=O)c1c(C)nn(-c2ccc(F)c3cc(Cc4cccc(C(F)(F)F)c4)sc23)c1C [Example 102, 1-[4-fluoro-2-[3-(trifluoromethyl)benzyl]-1-benzothiophen-7-yl]-N,3,5-trimethyl-1H-pyrazole-4-carboxamide] | –
95 | – | Cc1nn(-c2cccc3oc(Cc4cccc(C(F)(F)F)c4)cc23)c(C)c1C(N)=O [Example 76, 3,5-dimethyl-1-[2-[3-(trifluoromethyl)benzyl]-1-benzofuran-4-yl]-1H-pyrazole-4-carboxamide] | –
104 | – | Cc1nn(-c2cccc3cc(Cc4cc(F)cc(F)c4)sc23)c(C)c1C(N)=O [Example 100, 1-[2-(3,5-difluorobenzyl)-1-benzothiophen-7-yl]-3,5-dimethyl-1H-pyrazole-4-carboxamide] | –
100 | – | Cc1nn(-c2cccc3sc(Cc4cc(F)cc(Cl)c4)cc23)c(C)c1C(=O)NCC(N)=O [Example 107, N-(2-amino-2-oxoethyl)-1-[2-(3-chloro-5-fluorobenzyl)-1-benzothiophen-4-yl]-3,5-dimethyl-1H-pyrazole-4-carboxamide] | –
94 | – | Cn1nc(-c2cccc3cc(Cc4cccc(C(F)(F)F)c4)sc23)cc1C(=O)NCC(N)=O [Example 110, N-(2-amino-2-oxoethyl)-1-methyl-3-[2-[3-(trifluoromethyl)benzyl]-1-benzothiophen-7-yl]-1H-pyrazole-5-carboxamide] | –
96 | – | Cc1nn(-c2cccc3cc(Cc4cc(F)cc(F)c4)sc23)c(C)c1C(=O)NCC(N)=O [Example 101, N-(2-amino-2-oxoethyl)-1-[2-(3,5-difluorobenzyl)-1-benzothiophen-7-yl]-3,5-dimethyl-1H-pyrazole-4-carboxamide] | –
104 | – | Cc1nn(-c2cccc3nn(Cc4cccc(C(F)(F)F)c4)cc23)c(C)c1C(N)=O [Example 78, 3,5-dimethyl-1-[2-[3-(trifluoromethyl)benzyl]-2H-indazol-4-yl]-1H-pyrazole-4-carboxamide] | –
